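Method: 48-hour compound exposure of cells in 96-well plates, five concentrations, linear interpolation of endpoints. GI50 marks 50% less growth. TGI: total growth inhibition.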
What was measured:
Experiment in all cases: growth of human tumour cells (NCI), 48 h
MCF7 breast = system: MCF7 breast
MALME-3M melanoma = system: MALME-3M melanoma
ACHN renal = system: ACHN renal
MOLT-4 leukemia = system: MOLT-4 leukemia
HOP-62 NSCLC = system: HOP-62 NSCLC
K-562 leukemia = system: K-562 leukemia
UO-31 renal = system: UO-31 renal
SK-MEL-2 melanoma = system: SK-MEL-2 melanoma
SK-OV-3 ovarian = system: SK-OV-3 ovarian
SR leukemia = system: SR leukemia
SK-MEL-28 melanoma = system: SK-MEL-28 melanoma
HL-60(TB) leukemia = system: HL-60(TB) leukemia
SN12C renal = system: SN12C renal
RXF 393 renal = system: RXF 393 renal
COLO 205 colon = system: COLO 205 colon
HS 578T breast = system: HS 578T breast
NCI-H522 lung = system: NCI-H522 lung
EKVX NSCLC = system: EKVX NSCLC
MDA-MB-231 breast = system: MDA-MB-231 breast
HCT-116 colon = system: HCT-116 colon
CAKI-1 renal = system: CAKI-1 renal
SF-268 CNS = system: SF-268 CNS
HOP-92 NSCLC = system: HOP-92 NSCLC
U251 CNS = system: U251 CNS
SW-620 colon = system: SW-620 colon
OVCAR-3 ovarian = system: OVCAR-3 ovarian
NCI/ADR-RES ovarian = system: NCI/ADR-RES ovarian
OVCAR-8 ovarian = system: OVCAR-8 ovarian
IGROV1 ovarian = system: IGROV1 ovarian
OVCAR-4 ovarian = system: OVCAR-4 ovarian
NCI-H23 lung = system: NCI-H23 lung
HCT-15 colon = system: HCT-15 colon
T-47D breast = system: T-47D breast
UACC-62 melanoma = system: UACC-62 melanoma
LOX IMVI melanoma = system: LOX IMVI melanoma
CCRF-CEM leukemia = system: CCRF-CEM leukemia
MDA-MB-435 = system: MDA-MB-435
SF-295 CNS = system: SF-295 CNS
KM12 colon = system: KM12 colon
SK-MEL-5 melanoma = system: SK-MEL-5 melanoma
NCI-H226 lung = system: NCI-H226 lung
MDA-MB-468 breast = system: MDA-MB-468 breast
RPMI-8226 leukemia = system: RPMI-8226 leukemia
786-0 renal = system: 786-0 renal
HCC-2998 colon = system: HCC-2998 colon
A498 renal = system: A498 renal
HT29 colon = system: HT29 colon
OVCAR-5 ovarian = system: OVCAR-5 ovarian
SNB-19 CNS = system: SNB-19 CNS
DU-145 prostate = system: DU-145 prostate
SF-539 CNS = system: SF-539 CNS
M14 melanoma = system: M14 melanoma
PC-3 prostate = system: PC-3 prostate
SNB-75 CNS = system: SNB-75 CNS
BT-549 breast = system: BT-549 breast
TK-10 renal = system: TK-10 renal
A549 NSCLC = system: A549 NSCLC
NCI-H460 lung = system: NCI-H460 lung

For `COc1ccc2cc([C@H](C)C(=O)NCc3ccccc3)ccc2c1`, the GI50 (MCF7 breast) was 3.39 µM, the TGI (MCF7 breast) was over 100 µM and the GI50 (MALME-3M melanoma) was 3.88 µM. It also gave a TGI (MALME-3M melanoma) of over 100 µM, a GI50 (ACHN renal) of 5.93 µM and a TGI (ACHN renal) of over 100 µM. The GI50 (MOLT-4 leukemia) was 4.19 µM, the TGI (MOLT-4 leukemia) was over 100 µM and the GI50 (HOP-62 NSCLC) was 4.02 µM. It also gave a TGI (HOP-62 NSCLC) of 76 µM, a GI50 (K-562 leukemia) of 2.19 µM and a TGI (K-562 leukemia) of over 100 µM. The GI50 (UO-31 renal) was 4.35 µM, the TGI (UO-31 renal) was 73.4 µM and the GI50 (SK-MEL-2 melanoma) was 3.93 µM. For the same compound, the TGI (SK-MEL-2 melanoma) was 34.7 µM, the GI50 (SK-OV-3 ovarian) was 3.76 µM and the TGI (SK-OV-3 ovarian) was 76.7 µM. For the same compound, the GI50 (SR leukemia) was 1.78 µM, the TGI (SR leukemia) was over 100 µM and the GI50 (SK-MEL-28 melanoma) was 7.12 µM. The TGI (SK-MEL-28 melanoma) was over 100 µM, the GI50 (HL-60(TB) leukemia) was 2.25 µM and the TGI (HL-60(TB) leukemia) was 7.52 µM. It also gave a GI50 (SN12C renal) of 4.26 µM, a TGI (SN12C renal) of over 100 µM and a GI50 (RXF 393 renal) of 2.57 µM. The TGI (RXF 393 renal) was 9.23 µM, the GI50 (COLO 205 colon) was 3.03 µM and the TGI (COLO 205 colon) was 14 µM. For the same compound, the GI50 (HS 578T breast) was 3.11 µM, the TGI (HS 578T breast) was 51.7 µM and the GI50 (NCI-H522 lung) was 2.98 µM. For the same compound, the TGI (NCI-H522 lung) was over 100 µM, the GI50 (EKVX NSCLC) was 3.82 µM and the TGI (EKVX NSCLC) was over 100 µM. It also gave a GI50 (MDA-MB-231 breast) of 4.72 µM, a TGI (MDA-MB-231 breast) of over 100 µM and a GI50 (HCT-116 colon) of 5.21 µM. For the same compound, the TGI (HCT-116 colon) was over 100 µM, the GI50 (CAKI-1 renal) was 4.78 µM and the TGI (CAKI-1 renal) was over 100 µM. The GI50 (SF-268 CNS) was 6.44 µM, the TGI (SF-268 CNS) was over 100 µM and the GI50 (HOP-92 NSCLC) was 7.87 µM. The TGI (HOP-92 NSCLC) was 79.2 µM, the GI50 (U251 CNS) was 3.95 µM and the TGI (U251 CNS) was 73.9 µM. For the same compound, the GI50 (SW-620 colon) was 3.43 µM, the TGI (SW-620 colon) was over 100 µM and the GI50 (OVCAR-3 ovarian) was 3.21 µM. The TGI (OVCAR-3 ovarian) was 22.9 µM, the GI50 (NCI/ADR-RES ovarian) was 3.11 µM and the TGI (NCI/ADR-RES ovarian) was 12.2 µM. The GI50 (OVCAR-8 ovarian) was 5.29 µM, the TGI (OVCAR-8 ovarian) was over 100 µM and the GI50 (IGROV1 ovarian) was 5.5 µM. The TGI (IGROV1 ovarian) was over 100 µM, the GI50 (OVCAR-4 ovarian) was 49.3 µM and the TGI (OVCAR-4 ovarian) was over 100 µM. It also gave a GI50 (NCI-H23 lung) of 5.48 µM, a TGI (NCI-H23 lung) of over 100 µM and a GI50 (HCT-15 colon) of 3.28 µM. The TGI (HCT-15 colon) was over 100 µM, the GI50 (T-47D breast) was 4.75 µM and the TGI (T-47D breast) was over 100 µM. It also gave a GI50 (UACC-62 melanoma) of 3.75 µM, a TGI (UACC-62 melanoma) of over 100 µM and a GI50 (LOX IMVI melanoma) of 5.03 µM. For the same compound, the TGI (LOX IMVI melanoma) was over 100 µM, the GI50 (CCRF-CEM leukemia) was 3.9 µM and the TGI (CCRF-CEM leukemia) was over 100 µM. It also gave a GI50 (MDA-MB-435) of 1.71 µM, a TGI (MDA-MB-435) of 7.53 µM and a GI50 (SF-295 CNS) of 3.23 µM. It also gave a TGI (SF-295 CNS) of 16 µM, a GI50 (KM12 colon) of 4.56 µM and a TGI (KM12 colon) of over 100 µM. The GI50 (SK-MEL-5 melanoma) was 3.17 µM, the TGI (SK-MEL-5 melanoma) was over 100 µM and the GI50 (NCI-H226 lung) was 7.83 µM. The TGI (NCI-H226 lung) was over 100 µM, the GI50 (MDA-MB-468 breast) was 1.98 µM and the TGI (MDA-MB-468 breast) was 5.52 µM. For the same compound, the GI50 (RPMI-8226 leukemia) was 5.09 µM, the TGI (RPMI-8226 leukemia) was over 100 µM and the GI50 (786-0 renal) was 7.94 µM. The TGI (786-0 renal) was over 100 µM, the GI50 (HCC-2998 colon) was 6.89 µM and the TGI (HCC-2998 colon) was over 100 µM. The GI50 (A498 renal) was over 100 µM, the TGI (A498 renal) was over 100 µM and the GI50 (HT29 colon) was 3.08 µM. For the same compound, the TGI (HT29 colon) was over 100 µM, the GI50 (OVCAR-5 ovarian) was 7.84 µM and the TGI (OVCAR-5 ovarian) was over 100 µM. It also gave a GI50 (SNB-19 CNS) of 5.46 µM, a TGI (SNB-19 CNS) of 40.2 µM and a GI50 (DU-145 prostate) of 5.52 µM. It also gave a TGI (DU-145 prostate) of over 100 µM, a GI50 (SF-539 CNS) of 3.08 µM and a TGI (SF-539 CNS) of 11.7 µM. For the same compound, the GI50 (M14 melanoma) was 3.61 µM, the TGI (M14 melanoma) was over 100 µM and the GI50 (PC-3 prostate) was 4.44 µM. It also gave a TGI (PC-3 prostate) of over 100 µM, a GI50 (SNB-75 CNS) of 1.68 µM and a TGI (SNB-75 CNS) of 7.16 µM. It also gave a GI50 (BT-549 breast) of 5.47 µM, a TGI (BT-549 breast) of over 100 µM and a GI50 (TK-10 renal) of 13 µM. It also gave a TGI (TK-10 renal) of over 100 µM, a GI50 (A549 NSCLC) of 6.86 µM and a TGI (A549 NSCLC) of over 100 µM. The GI50 (NCI-H460 lung) was 3.83 µM and the TGI (NCI-H460 lung) was over 100 µM.
